# Measurements as given in the supplement of paper PMC11061612.
# Experiments:
# CAL-72 (Osteosarcoma) [1] = experiment: Bliss excess, mean over the matrix (fraction); higher = more synergy
# How it was run: (§1)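 Cell lines in DMEM/F12 or RPMI with 10% FBS were plated in 1536-well plates, held 24 hours at 37°C, 5% CO2, then given two-drug dose matrices for 72 hours (DMSO typically 0.2%). Viability was read by CellTiter-Glo 2.0 luminescence and scaled as inhibition from 0 (vehicle wells) to 1 (blank wells). Combination Emax is the second-highest inhibition in the matrix; Bliss excess is observed combination effect minus expected EA + EB − EA·EB, EA and EB being single-agent effects.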
# [2] = system: Detroit562 (Head and Neck Carcinoma); experiment: as above
# How it was run: as §1
# EW-11 (Ewing's Sarcoma) = experiment: as above
# How it was run: as §1
# [3] = system: KMRC-20 (Kidney Carcinoma); experiment: as above
# How it was run: as §1
# [4] = system: KYAE-1 (Esophageal Adenocarcinoma); experiment: as above
# How it was run: as §1
# [5] = system: LCLC-97TM1 (Non-Small Cell Lung Carcinoma); experiment: as above
# How it was run: as §1
# LOXIMVI (Melanoma) [6] = experiment: as above
# How it was run: as §1
# MPP-89 (Mesothelioma) = experiment: as above
# How it was run: as §1
# NCI-H2052 (Mesothelioma) = experiment: as above
# How it was run: as §1
# NCI-H2722 (Mesothelioma) = experiment: as above
# How it was run: as §1
# [7] = system: OE21 (Esophageal Squamous Cell Carcinoma); experiment: as above
# How it was run: as §1
# [8] = system: OV-56 (Ovarian Carcinoma); experiment: as above
# How it was run: as §1
# [9] = system: OVCAR-5 (Ovarian Carcinoma); experiment: as above
# How it was run: as §1
# [10] = system: SAS (Oral Cavity Carcinoma); experiment: as above
# How it was run: as §1
# [11] = system: SW1710 (Bladder Carcinoma); experiment: as above
# How it was run: as §1
# CAL-72 (Osteosarcoma) [12] = experiment: combination Emax (second highest fraction inhibited in the dose matrix, 72 h); higher = more inhibition; extreme values may be limits of the assay
# How it was run: as §1
# [13] = system: HuH-7 (Hepatocellular Carcinoma); experiment: as above
# How it was run: as §1
# [14] = system: KMRC-20 (Kidney Carcinoma); experiment: as above
# How it was run: as §1
# LOXIMVI (Melanoma) [15] = experiment: as above
# How it was run: as §1
# [16] = system: OE21 (Esophageal Squamous Cell Carcinoma); experiment: as above
# How it was run: as §1
# 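For Bliss excess, mean over the matrix in this document: after 72 h of two-drug dosing.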
SMILES,Bliss excess (CAL-72 (Osteosarcoma) [1]),Bliss excess [2],Bliss excess (EW-11 (Ewing's Sarcoma)),Bliss excess [3],Bliss excess [4],Bliss excess [5],Bliss excess (LOXIMVI (Melanoma) [6]),Bliss excess (MPP-89 (Mesothelioma)),Bliss excess (NCI-H2052 (Mesothelioma)),Bliss excess (NCI-H2722 (Mesothelioma)),Bliss excess [7],Bliss excess [8],Bliss excess [9],Bliss excess [10],Bliss excess [11],combination Emax (CAL-72 (Osteosarcoma) [12]),combination Emax [13],combination Emax [14],combination Emax (LOXIMVI (Melanoma) [15]),combination Emax [16]
"CCN(CCO)CCCOc1ccc2c(Nc3cc(CC(=O)Nc4cccc(F)c4)[nH]n3)ncnc2c1 [AZD2811] + O=C(c1cc(Cc2n[nH]c(=O)c3ccccc23)ccc1F)N1CCN(C(=O)C2CC2)CC1 [Olaparib] (first compound max 1 µM, 7x7, partner max 10 µM)",0.0343,0.0133,0.0191,0.0017,0.0093,0.0148,0.0073,-0.0334,-0.0042,-0.016,0.0043,-0.0081,-0.0048,0.0114,0.0073,0.322,0.174,0.24,0.336,0.255
"CN(CCO)CC[C@H](CSc1ccccc1)Nc1ccc(S(=O)(=O)NC(=O)c2ccc(N3CCC([C@@H](O)c4ccccc4-c4ccc(Cl)cc4)CC3)cc2)cc1S(=O)(=O)C(F)(F)F [AZD4320] + C1CN(CCC1(C(=O)N[C@@H](CCO)C2=CC=C(C=C2)Cl)N)C3=NC=NC4=C3C=CN4 [Capivasertib] (first compound max 1 µM, 7x7, partner max 3 µM)",-0.0184,-0.0535,0.0405,-0.0546,-0.031,-0.0048,-0.0189,-0.0234,-0.0743,-0.081,0.0073,-0.0243,-0.0487,-0.0369,-0.034,0.315,0.197,0.245,0.202,0.441
"CN(CCO)CC[C@H](CSc1ccccc1)Nc1ccc(S(=O)(=O)NC(=O)c2ccc(N3CCC([C@@H](O)c4ccccc4-c4ccc(Cl)cc4)CC3)cc2)cc1S(=O)(=O)C(F)(F)F [AZD4320] + CN(C)CCCOc1ccc(-c2ccc3ncc4c(c3c2)n(C2CCOCC2)c(=O)n4C)cn1 [AZD0156] (first compound max 1 µM, 7x7, partner max 1 µM)",-0.0292,-0.0332,-0.0102,-0.0377,-0.0114,-0.0244,0.0015,-0.0339,-0.0383,-0.0276,-0.0207,-0.015,-0.0527,-0.0472,-0.0302,0.332,0.154,0.113,0.366,0.158
"CN(CCO)CC[C@H](CSc1ccccc1)Nc1ccc(S(=O)(=O)NC(=O)c2ccc(N3CCC([C@@H](O)c4ccccc4-c4ccc(Cl)cc4)CC3)cc2)cc1S(=O)(=O)C(F)(F)F [AZD4320] + Cn1cnc2c(F)c(Nc3ccc(Br)cc3Cl)c(C(=O)NOCCO)cc21 [Selumetinib] (first compound max 1 µM, 7x7, partner max 3 µM)",-0.0089,0.072,-0.0786,0.0022,-0.0146,0.0523,0.0352,-0.0056,0.0283,-0.011,0.0225,-0.0063,-0.0282,0.043,0.0287,0.51,0.55,0.261,0.689,0.413
"COc1nnc2ccc(N3CCC(c4ccc(OCCN5CCN(C)C(=O)[C@H]5C)cc4)CC3)nn12 [AZD5153] + C=CCn1c(=O)c2cnc(Nc3ccc(N4CCN(C)CC4)cc3)nc2n1-c1cccc(C(C)(C)O)n1 [AZD1775] (first compound max 1 µM, partner max 1 µM)",-0.0524,-0.0535,-0.0976,-0.0446,-0.0142,-0.0845,-0.0494,-0.0669,-0.0882,0.0139,-0.0497,-0.0105,-0.0591,-0.0302,-0.0582,0.647,0.682,0.694,0.892,0.742
"COc1nnc2ccc(N3CCC(c4ccc(OCCN5CCN(C)C(=O)[C@H]5C)cc4)CC3)nn12 [AZD5153] + CC1(C)CCC(CN2CCN(c3ccc(C(=O)NS(=O)(=O)c4ccc(NCC5CCOCC5)c([N+](=O)[O-])c4)c(Oc4cnc5[nH]ccc5c4)c3)CC2)=C(c2ccc(Cl)cc2)C1 [Venetoclax] (first compound max 1 µM, 7x7, partner max 1 µM)",-0.0305,-0.0552,-0.117,-0.0096,-0.0171,-0.0277,-0.0687,-0.0166,-0.0748,-0.0485,-0.0352,-0.062,-0.052,-0.0325,-0.0739,0.495,0.442,0.452,0.882,0.662
"COc1nnc2ccc(N3CCC(c4ccc(OCCN5CCN(C)C(=O)[C@H]5C)cc4)CC3)nn12 [AZD5153] + CCN(CCO)CCCOc1ccc2c(Nc3cc(CC(=O)Nc4cccc(F)c4)[nH]n3)ncnc2c1 [AZD2811] (first compound max 1 µM, 7x7, partner max 1 µM)",-0.012,-0.0804,-0.06,-0.148,-0.0092,-0.0325,-0.0129,-0.0396,-0.0479,-0.0263,-0.0315,-0.0288,-0.0781,-0.0499,-0.052,0.503,0.463,0.414,0.861,0.693
"COc1nnc2ccc(N3CCC(c4ccc(OCCN5CCN(C)C(=O)[C@H]5C)cc4)CC3)nn12 [AZD5153] + C[C@@H]1COCCN1C2=NC(=NC(=C2)C3(CC3)[S@](=N)(=O)C)C4=C5C=CNC5=NC=C4 [AZD6738] (first compound max 1 µM, 7x7, partner max 10 µM)",-0.0087,-0.0241,0.0006,0.0821,-0.003,-0.033,-0.0413,0.0648,-0.0497,0.0378,-0.0266,0.0824,-0.0276,-0.0483,0.0013,0.784,0.724,0.775,0.97,0.858
"COc1nnc2ccc(N3CCC(c4ccc(OCCN5CCN(C)C(=O)[C@H]5C)cc4)CC3)nn12 [AZD5153] + Cc1c2c(nn1C)CSCc1cc(n(C)n1)CSc1cc(c3ccccc3c1)OCCCc1c(C(=O)O)n(C)c3c-2c(Cl)ccc13 [AZD5991] (first compound max 1 µM, 7x7, partner max 1 µM)",0.0287,-0.0459,0.111,-0.0135,-0.0291,-0.017,0.0393,-0.0399,-0.018,-0.016,-0.0089,-0.0093,-0.043,-0.0191,-0.0389,0.792,0.755,0.37,0.975,0.83
"COc1nnc2ccc(N3CCC(c4ccc(OCCN5CCN(C)C(=O)[C@H]5C)cc4)CC3)nn12 [AZD5153] + Cn1cnc2c(F)c(Nc3ccc(Br)cc3Cl)c(C(=O)NOCCO)cc21 [Selumetinib] (first compound max 1 µM, 7x7, partner max 10 µM)",-0.0414,-0.0316,-0.0633,-0.08,-0.004,-0.0694,-0.0679,0.0192,0.0301,-0.0597,0.0032,-0.0232,-0.0429,0.0163,-0.0433,0.389,0.885,0.414,0.877,0.861
"Cc1c2c(nn1C)CSCc1cc(n(C)n1)CSc1cc(c3ccccc3c1)OCCCc1c(C(=O)O)n(C)c3c-2c(Cl)ccc13 [AZD5991] + C1CN(CCC1(C(=O)N[C@@H](CCO)C2=CC=C(C=C2)Cl)N)C3=NC=NC4=C3C=CN4 [Capivasertib] (first compound max 1 µM, 7x7, partner max 3 µM)",0.005,-0.0269,-0.02,-0.0163,-0.0194,-0.0061,-0.0067,0.0003,-0.0083,-0.0147,0.0577,-0.0006,-0.0337,-0.0165,-0.0407,0.415,0.208,0.223,0.313,0.631
"Cc1c2c(nn1C)CSCc1cc(n(C)n1)CSc1cc(c3ccccc3c1)OCCCc1c(C(=O)O)n(C)c3c-2c(Cl)ccc13 [AZD5991] + C=CCn1c(=O)c2cnc(Nc3ccc(N4CCN(C)CC4)cc3)nc2n1-c1cccc(C(C)(C)O)n1 [AZD1775] (first compound max 1 µM, partner max 1 µM)",0.0098,0.0261,-0.0011,-0.0011,-0.0078,-0.0141,-0.029,-0.0732,-0.0875,-0.016,-0.0135,0.0126,-0.0096,-0.0144,-0.0257,0.782,0.448,0.638,0.624,0.719
"Cc1c2c(nn1C)CSCc1cc(n(C)n1)CSc1cc(c3ccccc3c1)OCCCc1c(C(=O)O)n(C)c3c-2c(Cl)ccc13 [AZD5991] + CC1(C)CCC(CN2CCN(c3ccc(C(=O)NS(=O)(=O)c4ccc(NCC5CCOCC5)c([N+](=O)[O-])c4)c(Oc4cnc5[nH]ccc5c4)c3)CC2)=C(c2ccc(Cl)cc2)C1 [Venetoclax] (first compound max 1 µM, 7x7, partner max 1 µM)",0.0676,-0.0119,0.144,-0.0206,0.0049,-0.023,-0.0182,-0.0065,0.0269,-0.0733,0.0182,0.0077,-0.0365,0.0098,-0.019,0.423,0.306,0.162,0.229,0.454
